How the values were obtained:
[1] = Compound stability in human liver microsomes; assay type: in vitro ADME; settings: for half-life: pH 7.4, 37° C., NADPH, read-out: Human T1/2; for CLint scaled: pH 7.4, in vivo CLint extrapolated
Description: Human or rat liver microsomes incubations were conducted in duplicate in polypropylene tubes. The typical incubation mixtures consisted of human or rat liver microsomes (0.5 mg protein/mL), compounds of interest (5 μM) and NADPH (1.0 mM) in a total volume of 200 μL potassium phosphate buffer (PBS, 100 mM, pH 7.4). Compounds were dissolved in DMSO and diluted with PBS such that the final concentration of DMSO was 0.05%. The enzymatic reactions were commenced with the addition of protein after a 3-min preincubation and incubated in a water bath open to the air at 37° C. Reactions were terminated at various time points (0, 5, 10, 15, 30, 60 min) by adding equal volume of ice-cold acetonitrile. The samples were stored at −80° C. until LC/MS/MS assays.
The concentrations of compounds in the incubation mixtures of human or rat liver microsomes were determined by a LC/MS/MS method. The ranges of the linearity in the concentration range were determined for each tested compounds.
A parallel incubation was performed using denatured microsomes as the negative control, and reactions were terminated at various time points (0, 15, 60 min) after incubation at 37° C.
Verapamil (1 μM) was selected as the positive control, and reactions were terminated at various time points (0, 5, 10, 15, 30, 60 min) after incubation at 37° C. Both positive and negative control samples were included in each assay to ensure the integrity of the microsomal incubation system.
In addition, the stability date of compound in human and rat liver microsomes was also obtained through the following method. Human or rat liver microsomes incubations were conducted in duplicate in polypropylene tubes. The typical incubation mixtures consisted of human or rat liver microsomes (0.5 mg protein/mL), compounds of interest (1.5 μM) and EDTA (1.0 mM) in a total volume of 30 μL potassium phosphate buffer (PBS, 100 mM, pH 7.4). Compounds were dissolved in DMSO and diluted with PBS such that the final concentration of DMSO was 0.2%. The enzymatic reactions were commenced with the addition of 15 μL NADPH (final concentration: 2 mM) after a 10-min preincubation and incubated in a water bath open to the air at 37° C. Reactions were terminated at various time points (0, 15, 30, 60 min) by adding 135 μL acetonitrile (contain IS). The samples were centrifuged at 4000 rpm for 10 min to remove protein, the supernatant was stored at −80° C. until LC/MS/MS assays. Ketanserin (1 μM) was selected as the positive control, and reactions were terminated at various time points (0, 15, 30, 60 min) after incubation at 37° C. Both positive and negative control samples were included in each assay to ensure the integrity of the microsomal incubation system.
The concentrations of compounds in human or rat liver microsome incubations were plotted as a percentage of the relevant zero time point control for each reaction. The in vivo CLint were extrapolated (ref.: Naritomi, Y.; Terashita, S.; Kimura, S.; Suzuki, A.; Kagayama, A.; and Sugiyama, Y.; Prediction of human hepatic clearance from in vivo animal experiments and in vitro metabolic studies with liver microsomes from animals and humans. Drug Metab. Dispos., 2001, 29: 1316-1324).

JAK2 (h) = target: T1, JAK2 (h) (Homo sapiens, UniProt O60674); assay: JAK2 (h) kinase assay; assay type: biochemical
T1 construct: purchased Millipore UK Ltd (contract assay service)
Description: (§1) The above assay procedure can be used to determine the IC50 for inhibition and/or the inhibition constant, Ki. The IC50 is defined as the concentration of compound required to reduce the enzyme activity by 50% under the condition of the assay. The IC50 value is estimated by preparing a 10 point curve using a ½ log dilution series (for example, a typical curve may be prepared using the following compound concentrations: 3 μM, 1 μM, 0.3 μM, 0.1 μM, 0.03 μM, 0.01 μM, 0.003 μM, 0.001 μM, 0.0003 μM and 0 μM).
JAK2 (h) is incubated with 8 mM MOPS pH 7.0, 0.2 mM EDTA, 100 μM […], 10 mM MgAcetate and [γ-^33P-ATP] (specific activity approx. 500 cpm/pmol, concentration as required). The reaction is initiated by the addition of the MgATP mix. After incubation for 40 minutes at room temperature, the reaction is stopped by the addition of 3% phosphoric acid solution. 10 μL of the reaction is then spotted onto a P30 filtermat and washed three times for 5 minutes in 75 mM phosphoric acid and once in methanol prior to drying and scintillation counting.
(§2) The kinase assays described herein were performed at Millipore UK Ltd, Dundee Technology Park, Dundee DD2 1SW, UK.

JAK1 (h) = target: T2, JAK1 (h) (Homo sapiens, UniProt P23458); assay: JAK1 (h) kinase assay; assay type: biochemical
T2 construct: purchased Millipore UK Ltd (contract assay service)
Description: as §1
JAK1 (h) is incubated with 20 mM Tris/HCl pH 7.5, 0.2 mM EDTA, 500 μM GEEPLYWSFPAKKK, 10 mM MgAcetate and [γ-^33P-ATP] (specific activity approx. 500 cpm/pmol, concentration as required). The reaction is initiated by the addition of the MgATP mix. After incubation for 40 minutes at room temperature, the reaction is stopped by the addition of 3% phosphoric acid solution. 10 μL of the reaction is then spotted onto a P30 filtermat and washed three times for 5 minutes in 75 mM phosphoric acid and once in methanol prior to drying and scintillation counting.
as §2

T1 sequence (O60674 whole entry): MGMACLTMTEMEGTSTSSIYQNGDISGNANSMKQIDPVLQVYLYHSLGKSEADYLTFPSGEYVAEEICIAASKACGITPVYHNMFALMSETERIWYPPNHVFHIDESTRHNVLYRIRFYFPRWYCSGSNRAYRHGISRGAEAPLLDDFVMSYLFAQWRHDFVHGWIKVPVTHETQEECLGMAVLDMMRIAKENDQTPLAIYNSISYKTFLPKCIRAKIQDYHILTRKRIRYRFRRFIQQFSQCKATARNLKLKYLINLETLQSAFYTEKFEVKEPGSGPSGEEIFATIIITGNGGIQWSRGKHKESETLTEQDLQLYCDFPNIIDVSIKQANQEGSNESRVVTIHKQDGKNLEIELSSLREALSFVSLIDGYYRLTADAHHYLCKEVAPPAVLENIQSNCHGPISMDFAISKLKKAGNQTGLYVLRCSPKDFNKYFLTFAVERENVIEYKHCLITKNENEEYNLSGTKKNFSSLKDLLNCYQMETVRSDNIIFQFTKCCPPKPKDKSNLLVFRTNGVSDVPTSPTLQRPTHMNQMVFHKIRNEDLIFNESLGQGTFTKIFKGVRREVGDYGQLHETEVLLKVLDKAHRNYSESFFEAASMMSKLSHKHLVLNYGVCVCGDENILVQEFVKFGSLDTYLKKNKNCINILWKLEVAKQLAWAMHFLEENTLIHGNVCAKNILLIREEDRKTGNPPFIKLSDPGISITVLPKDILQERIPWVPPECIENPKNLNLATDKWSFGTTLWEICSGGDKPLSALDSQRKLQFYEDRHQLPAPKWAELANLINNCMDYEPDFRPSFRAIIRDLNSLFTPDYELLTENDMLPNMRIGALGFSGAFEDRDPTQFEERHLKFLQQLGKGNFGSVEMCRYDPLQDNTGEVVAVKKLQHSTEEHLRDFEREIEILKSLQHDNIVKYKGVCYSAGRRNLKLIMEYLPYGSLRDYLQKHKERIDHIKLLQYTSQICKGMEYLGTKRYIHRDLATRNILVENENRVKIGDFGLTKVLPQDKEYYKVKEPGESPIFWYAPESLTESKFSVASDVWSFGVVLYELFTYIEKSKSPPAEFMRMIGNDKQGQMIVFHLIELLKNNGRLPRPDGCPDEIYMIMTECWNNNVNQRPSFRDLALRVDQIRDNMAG
T2 sequence (P23458 whole entry): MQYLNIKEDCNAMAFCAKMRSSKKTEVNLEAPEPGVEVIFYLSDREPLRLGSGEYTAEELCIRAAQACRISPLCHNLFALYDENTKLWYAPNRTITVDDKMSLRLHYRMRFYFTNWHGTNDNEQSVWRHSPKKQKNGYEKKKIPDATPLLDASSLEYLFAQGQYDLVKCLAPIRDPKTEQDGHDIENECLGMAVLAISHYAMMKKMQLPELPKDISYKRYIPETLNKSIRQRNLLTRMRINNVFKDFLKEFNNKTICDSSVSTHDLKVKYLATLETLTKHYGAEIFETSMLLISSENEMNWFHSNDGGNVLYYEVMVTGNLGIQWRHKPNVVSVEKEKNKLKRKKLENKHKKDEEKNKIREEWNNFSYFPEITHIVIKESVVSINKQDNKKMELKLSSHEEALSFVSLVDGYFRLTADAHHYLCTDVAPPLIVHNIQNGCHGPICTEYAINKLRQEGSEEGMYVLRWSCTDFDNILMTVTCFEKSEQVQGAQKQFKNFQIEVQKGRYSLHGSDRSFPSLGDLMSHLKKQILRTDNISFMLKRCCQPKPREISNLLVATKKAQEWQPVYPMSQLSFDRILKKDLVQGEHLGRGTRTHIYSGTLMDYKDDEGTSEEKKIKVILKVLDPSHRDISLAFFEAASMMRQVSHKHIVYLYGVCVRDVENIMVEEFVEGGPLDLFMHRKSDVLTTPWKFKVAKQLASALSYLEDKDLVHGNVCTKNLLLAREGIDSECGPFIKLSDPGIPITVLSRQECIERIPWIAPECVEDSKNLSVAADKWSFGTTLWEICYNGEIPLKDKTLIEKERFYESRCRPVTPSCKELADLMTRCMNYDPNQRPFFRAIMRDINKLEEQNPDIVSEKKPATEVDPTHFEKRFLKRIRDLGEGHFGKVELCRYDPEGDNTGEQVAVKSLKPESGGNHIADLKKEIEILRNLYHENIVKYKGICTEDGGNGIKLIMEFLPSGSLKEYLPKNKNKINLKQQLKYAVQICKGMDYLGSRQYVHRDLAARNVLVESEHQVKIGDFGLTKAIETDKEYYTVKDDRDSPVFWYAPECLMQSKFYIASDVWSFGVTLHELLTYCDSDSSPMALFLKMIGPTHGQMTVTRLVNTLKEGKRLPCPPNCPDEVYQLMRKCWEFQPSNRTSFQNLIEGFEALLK

SMILES | half-life [1] [min] | CLint scaled [1] [mL/min/kg] | IC50 (JAK2 (h)) [nM] | IC50 (JAK1 (h)) [nM]
Cc1c2ccc(Nc3ncc(Cl)c(NC4CCN(c5ccc(C#N)nn5)CC4)n3)cc2nn1C [Ex. 12, 6-(4-((5-chloro-2-((2,3-dimethyl-2H-indazol-6-yl)amino)pyrimidin-4-yl)amino)piperidin-1-yl)pyridazine-3-carbonitrile] | 25.3 | 68.8 | < 0.3 | < 0.3
Cc1nn(C)cc1Nc1ncc(Cl)c(NC2CCN(c3ccc(C#N)nn3)CC2)n1 [Ex. 11, 6-(4-((5-chloro-2-((1,3-dimethyl-1H-pyrazol-4-yl)amino)pyrimidin-4-yl)amino)piperidin-1-yl)pyridazine-3-carbonitrile] | 13.1 | 133 | 2 | 0.4
CN(c1nc(Nc2cnn(C)c2)ncc1Cl)C1CCN(c2ccc(C#N)cn2)CC1 [Ex. 5, 6-(4-((5-chloro-2-((1-methyl-1H-pyrazol-4-yl)amino)pyrimidin-4-yl) (methyl)amino)piperidin-1-yl)nicotinonitrile] | 22.9 | 75.7 | 17 | 0.8
Cc1cc(Nc2ncc(Cl)c(NC3CCN(c4ccc(C#N)nn4)CC3)n2)nn1C [Ex. 13, 6-(4-((5-chloro-2-((1,5-dimethyl-1H-pyrazol-3-yl)amino)pyrimidin-4-yl)amino)piperidin-1-yl)pyridazine-3-carbonitrile] | 68.2 | 25.5 | 1 | 0.4
Cc1nn(C)cc1Nc1ncc(Cl)c(NC2CCN(c3ccc(C#N)cn3)CC2)n1 [Ex. 10, 6-(4-((5-chloro-2-((1,3-dimethyl-1H-pyrazol-4-yl)amino)pyrimidin-4-yl)amino)piperidin-1-yl)nicotinonitrile] | 5.51 | 315 | 1 | < 0.3
Cc1c2ccc(Nc3ncc(Cl)c(NC4CCN(c5ccc(C#N)cn5)CC4)n3)cc2nn1C [Ex. 4] | 13.2 | 131 | 2 | 0.3
Cn1cc(Nc2ncc(Cl)c(NC3CCN(c4ccc(C#N)cn4)CC3)n2)cn1 [Ex. 1, 6-(4-((5-chloro-2-((1-methyl-1H-pyrazol-4-yl)amino)pyrimidin-4-yl)amino)piperidin-1-yl)nicotinonitrile] | 40.8 | 42.6 | 0.5 | < 0.3

— patent US10059689B2, “Substituted heteroaryl compounds and methods of use” (Sunshine Lake Pharma Co., Ltd., priority 2014, dated 2018)
